Earlier results, collected in patent US10675240B2 (priority 2014, dated 2020).

Details: background statement

CC1=CC[C@H]2C[C@@H]1C2(C)C [α-Pinene, (1S,5S)-2,6,6-Trimethylbicyclo[3.1.1]hept-2-ene]
human pulmonary uptake: 60%
